The source of these data is ChEMBL document CHEMBL1137771, “Non-nucleoside inhibitors of HCV polymerase NS5B. Part 2: Synthesis and structure-activity relationships of benzothiazine-substituted quinolinediones” (Bioorg Med Chem Lett, 2009).

Data set [1] is described as follows: Solubility of the compound. It counts as physicochemical.
The test system of data set [2] is Hepatitis C virus. Description: Inhibition of HCV 1b isolate BK NS5B Cdelta21 polymerase expressed in Escherichia coli. Also on record: species or system Hepatitis C virus subtype 1b.
Data set [3] is described as follows: Oral bioavailability in rat. It counts as ADME, organism-based. As to conditions: in vivo.
Data set [4] is described as follows: Cytotoxicity against human 2209-23 cells by WST1 assay. In kind it is cell-based.
The subject of data set [5] is Hepatitis C virus. Put plainly: Antiviral activity against HCV genotype 1b isolate con1 infected in human 2209-23 cells assessed as inhibition of [3H]thymidine incorporation into DNA by scintillation proximity assay in presence of 5% fetal bovine serum. In kind it is functional, organism-based, Hepacivirus hominis. To be noted: isolate Con1, 2209-23. Background: Dividing cells build labelled thymidine or BrdU into new DNA.

In data set [6] the test system is Hepatitis C virus. Description: Ratio of EC50 for HCV genotype 1b isolate con1 in presence of human serum albumin to EC50 for HCV genotype 1b isolate con1 in presence of fetal bovine serum. It counts as functional, Hepacivirus hominis.
A short description of data set [7]: Dissociation constant, pKa of the compound. In kind it is physicochemical.

Each structure is given as a SMILES string.

Consider `O=c1c(C2=Nc3ccccc3S(=O)(=O)N2)c(O)c2cc(F)ccc2n1CCC1CC1`, for which the solubility (commonly the concentration that dissolves in the medium under given conditions) in data set [1] is under 1 µg/mL. In the data set with Hepatitis C virus [2], the 50% inhibitory concentration (IC50) – broadly, the concentration needed to halve the response being measured – was 30 nM. Also, the bioavailability (usually dose-corrected exposure relative to a reference, in per cent) in data set [3] stood at 10%.
As for `CS(=O)(=O)Nc1ccc2c(c1)S(=O)(=O)C=C(c1c(O)c3cc(F)ccc3n(Cc3ccc(F)cc3)c1=O)N2`, in data set [4], the CC50 (commonly the concentration at which the toxic effect on the cells reaches its halfway point) is over 50000 nM. The EC50 (in general, the concentration needed to bring the measured effect to its halfway point) in the data set on Hepatitis C virus [5] was found to be 14 nM. Moreover, the “fold change (FC)” value with Hepatitis C virus [6] stood at 13. Also, in data set [7], the pKa (usually the pH at which an ionisable group is half protonated) was determined as 3.8.
